Values of other authors as cited in patent publication US20060182729A1, “Combat/training antioxidant micronutrient formulation and method of administration” (priority 2005, published 2006).

Assays:
[1] = system: mutagens in the small intestine; details: supplementation
[2] = oral supplementation, human subjects

| SMILES | formation of mutagens in the small intestine [1] | plasma levels of glutathione [2] |
| --- | --- | --- |
| O=C1O[C@H]([C@@H](O)CO)C(O)=C1O [vitamin C, ascorbic acid] | reduces |  |
| N[C@@H](CCC(=O)N[C@@H](CS)C(=O)NCC(=O)O)C(=O)O [glutathione] |  | failed to significantly increase |
